According to ChEMBL document CHEMBL1201862, “PubChem BioAssay data set” (2004):
Activity calls are given as the source filed them.

Experiments:
[1] = target: Cyclin-dependent kinase 5/CDK5 activator 1 (Homo sapiens, UniProt Q00535); assay: CDK5/p35 kinase inhibitors, dose response, biochemical, cherry-picked samples, set 2 (AID 504545)
[2] = target: T1, Bcl-2-like protein 10 (Homo sapiens, UniProt Q9HD36); assay: displacers of TR3 peptide from Bcl-B, primary screen, selectivity assay for Bfl-1 inhibitor project, biochemical, fluorescence polarization, FITC-TR3 peptide (AID 748);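 note: fluorescence polarization from a fluorescein-labelled TR3 peptide binding purified Bcl-B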
T1 sequence (Q9HD36 whole entry): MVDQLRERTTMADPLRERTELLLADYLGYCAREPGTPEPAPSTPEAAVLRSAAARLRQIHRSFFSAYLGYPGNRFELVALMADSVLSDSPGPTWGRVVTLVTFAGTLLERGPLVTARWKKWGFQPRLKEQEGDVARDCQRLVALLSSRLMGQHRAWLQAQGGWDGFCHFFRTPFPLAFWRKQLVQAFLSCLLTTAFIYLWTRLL

[3] = target: Peroxisome proliferator-activated receptor gamma/Nuclear receptor corepressor 2 (Homo sapiens, UniProt P37231+Q9Y618); format: functional
[4] = target: Photoreceptor-specific nuclear receptor (Homo sapiens, UniProt Q9Y5X4); format: functional;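 note: potency for compounds that break the NR2E3 corepressor complex and count as activators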
Chain of Photoreceptor-specific nuclear receptor (Q9Y5X4 whole entry): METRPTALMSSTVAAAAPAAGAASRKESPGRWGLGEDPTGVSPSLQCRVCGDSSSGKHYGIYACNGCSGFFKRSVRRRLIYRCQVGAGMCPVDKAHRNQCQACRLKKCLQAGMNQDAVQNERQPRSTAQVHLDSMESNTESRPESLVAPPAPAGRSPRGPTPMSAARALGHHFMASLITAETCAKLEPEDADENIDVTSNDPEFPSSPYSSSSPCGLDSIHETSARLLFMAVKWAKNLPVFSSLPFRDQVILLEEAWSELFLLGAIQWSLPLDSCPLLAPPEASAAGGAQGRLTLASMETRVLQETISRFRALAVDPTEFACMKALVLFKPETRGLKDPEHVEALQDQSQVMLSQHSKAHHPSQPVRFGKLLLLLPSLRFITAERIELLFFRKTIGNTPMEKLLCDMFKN

[5] = target: G2/mitotic-specific cyclin-B1 (Homo sapiens, UniProt P14635); assay: Counterscreen assay for inhibitors of Wee1 degradation: dose response cell-based assay to identify inhibitors of cyclin B degradation. [Related pubchem assays: 1410, 1321 ]; format: functional
Chain of G2/mitotic-specific cyclin-B1 (P14635 whole entry): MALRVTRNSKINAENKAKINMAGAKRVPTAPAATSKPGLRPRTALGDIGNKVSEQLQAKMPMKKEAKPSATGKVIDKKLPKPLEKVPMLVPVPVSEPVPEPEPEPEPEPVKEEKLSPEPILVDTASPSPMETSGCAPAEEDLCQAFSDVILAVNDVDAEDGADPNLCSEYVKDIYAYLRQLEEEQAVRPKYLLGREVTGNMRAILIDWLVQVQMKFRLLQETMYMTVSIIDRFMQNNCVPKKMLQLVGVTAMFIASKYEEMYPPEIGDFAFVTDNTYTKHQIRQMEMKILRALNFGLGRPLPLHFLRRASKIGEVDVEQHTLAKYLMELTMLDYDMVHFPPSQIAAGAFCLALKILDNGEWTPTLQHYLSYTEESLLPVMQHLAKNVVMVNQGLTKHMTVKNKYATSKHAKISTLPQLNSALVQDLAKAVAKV

[6] = target: Wee1-like protein kinase (Homo sapiens, UniProt P30291); assay: Dose Response Cell-based Assay for Inhibitors of Wee1 Degradation. [Related pubchem assays: 1410, 1321 ]; format: functional
Chain of Wee1-like protein kinase (P30291 whole entry): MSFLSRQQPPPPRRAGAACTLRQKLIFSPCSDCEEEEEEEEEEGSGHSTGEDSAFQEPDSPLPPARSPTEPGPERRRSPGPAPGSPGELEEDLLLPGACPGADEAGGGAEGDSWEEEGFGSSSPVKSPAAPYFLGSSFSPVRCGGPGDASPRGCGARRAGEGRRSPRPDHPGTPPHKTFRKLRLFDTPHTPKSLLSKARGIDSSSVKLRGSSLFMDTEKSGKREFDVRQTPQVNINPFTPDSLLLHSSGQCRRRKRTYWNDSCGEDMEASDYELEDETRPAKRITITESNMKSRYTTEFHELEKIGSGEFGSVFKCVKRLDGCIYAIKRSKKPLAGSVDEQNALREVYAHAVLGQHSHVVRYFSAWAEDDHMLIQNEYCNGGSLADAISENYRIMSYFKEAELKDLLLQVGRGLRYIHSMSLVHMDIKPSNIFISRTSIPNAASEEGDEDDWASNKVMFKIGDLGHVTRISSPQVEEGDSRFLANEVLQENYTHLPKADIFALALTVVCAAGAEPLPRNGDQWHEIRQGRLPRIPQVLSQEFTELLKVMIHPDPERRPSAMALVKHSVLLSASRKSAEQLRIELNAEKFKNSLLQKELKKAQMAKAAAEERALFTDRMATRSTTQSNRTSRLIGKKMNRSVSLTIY

[7] = target: T2, Heat shock factor protein 1 (Mus musculus, UniProt P38532); assay: HSF1 potentiators in luciferase reporter cells, confirmation, cell-based, NIH3T3, luminescence, dose retest (AID 435004); format: functional;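 note: stress induced by proteasome inhibitor MG132 added 30 min after compound; luciferase reporter driven by HSF1 response element in NIH3T3 cells; actives raise luminescence as potentiators of the MG132 stress response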
T2 sequence (P38532 whole entry): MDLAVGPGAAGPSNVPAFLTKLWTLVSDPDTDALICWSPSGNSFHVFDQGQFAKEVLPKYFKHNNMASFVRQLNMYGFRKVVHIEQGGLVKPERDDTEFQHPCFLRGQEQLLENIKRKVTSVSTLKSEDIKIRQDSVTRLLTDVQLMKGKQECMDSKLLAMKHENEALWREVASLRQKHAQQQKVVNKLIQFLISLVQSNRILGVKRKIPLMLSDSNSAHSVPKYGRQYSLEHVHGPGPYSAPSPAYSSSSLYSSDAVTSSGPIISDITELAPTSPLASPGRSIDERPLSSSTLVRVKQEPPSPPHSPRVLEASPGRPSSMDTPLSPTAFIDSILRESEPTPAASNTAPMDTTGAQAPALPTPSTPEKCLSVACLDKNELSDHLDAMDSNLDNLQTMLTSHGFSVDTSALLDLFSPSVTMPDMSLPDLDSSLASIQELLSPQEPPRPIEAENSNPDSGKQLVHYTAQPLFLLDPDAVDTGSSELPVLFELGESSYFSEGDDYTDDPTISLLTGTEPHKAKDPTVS

[8] = control 3'UTR Renilla luciferase suppression, dose response, counter-screen for Shn3 inhibitor project, cell-based, Clone20-Shn3RL, cherry-picked (AID 624133); format: functional
[9] = cytotoxicity toward NIH3T3 fibroblasts, dose response, counter-screen, cell-based, ATP luminescence, mouse fibroblasts (AID 2010); format: functional;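 note: cells exposed to compound for about 90 hours before reading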
[10] = Shn3 3'UTR reporter inhibitors, dose response, cell-based, Clone20 osteoblasts, firefly luciferase, cherry-picked (AID 624132); format: functional;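 note: firefly luciferase luminescence from reporter carrying the Shn3 3'UTR in osteoblasts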
[11] = tested on: Streptococcus sp. 'group A'; assay: growth inhibition of control SK(-) GAS strain, dose response, counter-screen for streptokinase expression inhibitor project, luminescence, kanamycin, BacTiterGlo, confirmation (AID 1900); format: functional, organism-based
[12] = target: Serine/threonine-protein phosphatase PP1-alpha catalytic subunit (Homo sapiens, UniProt P62136); assay: PP1 phosphatase inhibitors, dose response, biochemical, fluorescence (AID 2403);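 note: phosphatase turnover of OMFP into fluorescent 3-O-methylfluorescein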
Chain of Serine/threonine-protein phosphatase PP1-alpha catalytic subunit (P62136 whole entry): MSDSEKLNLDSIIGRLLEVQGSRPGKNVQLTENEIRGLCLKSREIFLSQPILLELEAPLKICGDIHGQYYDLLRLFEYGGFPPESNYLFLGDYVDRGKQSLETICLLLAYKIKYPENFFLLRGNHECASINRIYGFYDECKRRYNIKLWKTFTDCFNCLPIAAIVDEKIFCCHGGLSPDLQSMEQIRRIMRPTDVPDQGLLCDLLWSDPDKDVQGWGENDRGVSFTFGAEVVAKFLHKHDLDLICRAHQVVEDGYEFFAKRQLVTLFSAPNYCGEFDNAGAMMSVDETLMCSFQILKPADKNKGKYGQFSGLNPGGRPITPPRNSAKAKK

[13] = inhibitors of intracellular T. cruzi replication, confirmation, NIH3T3 host cells, beta-gal luminescence (AID 2044); format: functional, cell-based;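 note: intracellular parasites grown in NIH/3T3 mouse fibroblasts as host cells; luminescent beta-galactosidase reporter signal from transgenic T. cruzi replicating inside host cells; inhibitors lower the luminescence signal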
[14] = tested on: BJ; assay: cytotoxicity toward BJ-TERT-LT-ST fibroblasts, dose response, cell-based, RAS-independent, luminescence (AID 1935); format: functional; conditions: Homo sapiens;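 note: BJ fibroblasts immortalized with TERT plus LT and ST oncogenes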
[15] = cells; format: functional, cell-based
[16] = cells; format: functional, cell-based; remark: listed apart in the source
[17] = target: Serine/threonine-protein phosphatase (Homo sapiens, UniProt Q9BPW0); assay: Counterscreen for inhibitors of PP1: fluorescence-based biochemical high throughput dose response assay to identify inhibitors of Protein Phosphatase 5 (PP5). [Related pubchem assays: 2034 (Summary (PP5 inhibitors)), 1987 (PP5 inhibitors in singlate), 2235 (PP1 inhibitors in singlate)]
Chain of Serine/threonine-protein phosphatase (Q9BPW0 whole entry): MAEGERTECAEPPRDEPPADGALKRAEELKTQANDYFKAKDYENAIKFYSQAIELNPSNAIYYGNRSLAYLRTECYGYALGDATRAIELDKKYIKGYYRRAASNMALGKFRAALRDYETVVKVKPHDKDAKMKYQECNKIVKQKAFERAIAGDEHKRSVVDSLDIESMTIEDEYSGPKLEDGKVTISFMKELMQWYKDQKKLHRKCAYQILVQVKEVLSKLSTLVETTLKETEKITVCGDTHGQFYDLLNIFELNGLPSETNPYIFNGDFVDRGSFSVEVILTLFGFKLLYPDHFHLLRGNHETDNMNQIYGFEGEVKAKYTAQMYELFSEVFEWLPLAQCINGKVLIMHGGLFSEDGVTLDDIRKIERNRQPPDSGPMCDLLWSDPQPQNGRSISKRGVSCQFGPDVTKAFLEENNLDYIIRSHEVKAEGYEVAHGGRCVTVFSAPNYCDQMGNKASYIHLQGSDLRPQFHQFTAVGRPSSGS

[18] = tested on: BJ; assay: cytotoxicity toward BJ-TERT fibroblasts, dose response, cell-based, RAS-independent, luminescence (AID 1933); format: functional; conditions: Homo sapiens
[19] = HepG2 cell cytotoxicity, dose response, cytotoxicity control for Shn3 inhibitor project, CellTiter-Glo, cherry-picked (AID 624134); format: functional, cell-based
[20] = tested on: INS1; assay: beta cell apoptosis inhibitors, cytokine rescue, dose response, luminescence, retest (AID 449756); format: functional, cell-based; conditions: Rattus norvegicus;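 note: cell death triggered by IL-1 beta plus TNF-alpha plus IFN-gamma mixture; protective hits raise ATP signal compared with cytokine alone wells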
[21] = cytotoxicity toward DRD oncogenic fibroblasts, dose response, cell-based, non-viral oncogenic, luminescence (AID 1934); format: functional; conditions: Homo sapiens
[22] = tested on: BJ; assay: cells; format: functional, cell-based, Homo sapiens; conditions: Homo sapiens, BJ
[23] = tested on: Streptococcus; assay: Group A Streptococcus viability loss, dose response, counter-screen for streptokinase expression inhibitor project, luminescence, BacTiterGlo (AID 1915); format: functional, organism-based;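 note: potency for reduction of bacterial viability or growth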
[24] = cytotoxicity in HEK-293T cells, dose response, cytotoxicity control for BCR NF-kB inhibitor project, luminescence, B-cell screen hits (AID 489021); format: functional, cell-based;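 note: HEK-293T cells carrying an NF-kB luciferase reporter; cells exposed to compound for about 14 hours before viability readout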

Chain of Cyclin-dependent kinase 5/CDK5 activator 1 (Q00535 whole entry): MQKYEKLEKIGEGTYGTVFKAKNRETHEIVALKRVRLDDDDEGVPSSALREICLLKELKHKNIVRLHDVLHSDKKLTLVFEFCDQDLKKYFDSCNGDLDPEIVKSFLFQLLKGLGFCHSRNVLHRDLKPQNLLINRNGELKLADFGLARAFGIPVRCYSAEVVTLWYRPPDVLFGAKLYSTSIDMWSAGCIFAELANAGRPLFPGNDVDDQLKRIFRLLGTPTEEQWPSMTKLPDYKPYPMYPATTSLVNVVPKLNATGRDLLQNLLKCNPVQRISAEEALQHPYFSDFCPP
Chain of Cyclin-dependent kinase 5/CDK5 activator 1 (Q15078 whole entry, further chain): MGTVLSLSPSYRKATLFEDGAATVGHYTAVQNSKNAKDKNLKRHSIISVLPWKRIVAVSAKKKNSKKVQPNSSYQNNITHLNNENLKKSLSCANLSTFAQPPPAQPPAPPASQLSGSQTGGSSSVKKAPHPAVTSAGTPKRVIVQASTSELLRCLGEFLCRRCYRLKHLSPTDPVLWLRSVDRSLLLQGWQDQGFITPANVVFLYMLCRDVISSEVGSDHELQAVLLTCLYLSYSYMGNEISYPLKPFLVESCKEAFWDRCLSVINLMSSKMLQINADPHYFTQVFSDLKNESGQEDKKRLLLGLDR

In the case of `Nc1ccc(-c2cnc(N)c(C(=O)c3cccnc3)n2)cn1`, the AC50 [1] is reported as 36.7 µM (active).

For `O=C(NCCN1CCCCCC1)C1CCC(CNS(=O)(=O)c2cccc3cccnc23)CC1` (centres undefined), the IC50 [2] was > 100 µM (inactive).

With `N#Cc1ccc(Cl)cc1NC(=O)COC(=O)c1ccc2c(c1)OCCO2` the IC50 [3] was 2.78 µM (active) and the IC50 [4] was > 39.8 µM (not active).

For `CCOC(=O)N1CCN(C(=O)c2cc(-c3ccc(OCC)cc3)nc3ccccc23)CC1`, the EC50 [5] was > 49.7 µM (not active), the EC50 [6] was > 49.7 µM (not active) and the EC50 [7] was 14.5 µM (active).

For `Cc1ccc(Nc2c(-c3ccccn3)nc3cccc(C)n23)cc1`, the AC50 [8] was 0.907 µM (active), the EC50 [9] was < 6 µM (inconclusive) and the AC50 [10] was 1.9 µM (active). For the same molecule, the EC50 [11] was 0.77 µM (active), the IC50 [12] was 8.52 µM (active) and the EC50 [13] was 0.488 µM (active). The EC50 [14] was 8.61 µM (inconclusive), the EC50 [15] was 12.7 µM (active) and the EC50 [16] was > 350 µM (not active). The IC50 [17] was 45.1 µM (not active), the EC50 [18] was 6.81 µM (active) and the AC50 [19] was 25.6 µM (active). The AC50 [20] was 2.77 µM (active), the EC50 [21] was 13.5 µM (active) and the EC50 [22] was 14.3 µM (active). The EC50 [23] was 1.35 µM (active).

In the case of `OCCC/N=C/c1c(-c2ccccc2)nn(-c2nc3ccccc3s2)c1O`, the IC50 [24] is reported as > 80 µM (inactive).
